Measured values published in the NIST ThermoML archive (doi:10.1016/j.jct.2012.12.006).
“And” between values parts separate entries of the source, which are not always exact repeats. Equal entries are not always repeated.

Experiments:
[1] = Molar enthalpy of transition or fusion; settings: DSC
[2] = for vapor or sublimation pressure: Calculated from knudsen effusion weight loss; for Triple point temperature: DTA

NC(=O)c1cccc(N)c1 [3-aminobenzamide]
Settings | Molar enthalpy of transition or fusion, [1] [kcal/mol] | Triple point temperature, [2] [K]
Crystal 1 | 4.85 | 387.5
Crystal 2 | 0.789 | 352.4

[2], Crystal
Settings | vapor or sublimation pressure
358.14 K | 3.7e-05 kPa and 3.8e-05 kPa
360.19 K | 4.8e-05 kPa and 4.7e-05 kPa
362.14 K | 5.9e-05 kPa and 5.8e-05 kPa and 6e-05 kPa
364.14 K | 7.5e-05 kPa
366.17 K | 9.4e-05 kPa
368.15 K | 0.000116 kPa and 0.000114 kPa and 0.000117 kPa
370.15 K | 0.000144 kPa and 0.000146 kPa and 0.000143 kPa
372.19 K | 0.000179 kPa and 0.000177 kPa and 0.000176 kPa
374.13 K | 0.000218 kPa and 0.000216 kPa and 0.000222 kPa
376.15 K | 0.000276 kPa and 0.000275 kPa and 0.000274 kPa
378.18 K | 0.000342 kPa and 0.000338 kPa
380.14 K | 0.00042 kPa and 0.000406 kPa and 0.000405 kPa

NC(=O)c1ccc(N)cc1 [4-aminobenzamide]
Crystal
Settings | Molar enthalpy of transition or fusion [kcal/mol] | Triple point temperature [K]
[1] | 7.17 | –
[2] | – | 457.6

[2], Crystal
Settings | vapor or sublimation pressure
389.14 K | 0.000125 kPa and 0.000124 kPa
391.15 K | 0.000154 kPa and 0.000156 kPa and 0.000152 kPa
393.14 K | 0.000185 kPa and 0.000182 kPa and 0.000187 kPa
395.15 K | 0.000228 kPa and 0.000226 kPa
397.15 K | 0.000271 kPa and 0.000279 kPa
399.14 K | 0.00033 kPa and 0.000332 kPa and 0.000335 kPa
401.16 K | 0.000407 kPa and 0.000411 kPa
403.15 K | 0.000497 kPa and 0.000495 kPa and 0.000498 kPa
405.14 K | 0.000597 kPa and 0.000591 kPa and 0.000602 kPa
407.19 K | 0.000728 kPa and 0.000721 kPa
409.2 K | 0.000873 kPa and 0.000868 kPa and 0.000883 kPa
411.15 K | 0.001054 kPa and 0.001042 kPa and 0.001008 kPa

NC(=O)c1ccccc1N [anthranilamide]
Crystal
Settings | Molar enthalpy of transition or fusion [kcal/mol] | Triple point temperature [K]
[1] | 5 | –
[2] | – | 384.4

[2], Crystal
Settings | vapor or sublimation pressure
335.11 K | 9.5e-05 kPa and 9.6e-05 kPa
337.17 K | 0.000121 kPa and 0.00012 kPa
339.17 K | 0.00015 kPa and 0.000149 kPa and 0.000152 kPa
341.1 K | 0.00019 kPa and 0.000188 kPa and 0.000187 kPa
343.16 K | 0.000237 kPa and 0.000232 kPa and 0.000236 kPa
345.16 K | 0.00029 kPa and 0.000285 kPa and 0.000298 kPa
347.11 K | 0.000359 kPa and 0.000357 kPa
349.16 K | 0.000445 kPa and 0.000435 kPa and 0.000441 kPa
351.17 K | 0.000539 kPa and 0.00053 kPa and 0.000545 kPa
353.12 K | 0.000667 kPa and 0.000663 kPa
355.16 K | 0.00082 kPa and 0.000826 kPa and 0.000806 kPa
357.16 K | 0.000993 kPa and 0.000994 kPa
